The source made the active and inactive calls.
Experiments:
[1] = target: Protein disulfide-isomerase (Homo sapiens, UniProt P07237); experiment: PDI inhibitors, insulin aggregation turbidity, dose response, biochemical, absorbance, cherry-picked samples (AID 602350); format: functional
CHO-K1 = experiment: (§1) Counterscreen for antagonists of the orexin 1 receptor (OX1R; HCRTR1): Homogeneous time resolved fluorescence (HTRF)-based cell-based dose response assay to identify antagonists of the parental CHO-K1 cell line. [Related pubchem assays (depositor defined):AID434989, AID435008, AID463079, AID485270, AID492963, AID492964, AID492965, AID493232, AID504699, AID504701]; format: functional; conditions: Cricetulus griseus
[2] = as §1, with “Fluorescence-based” for “Homogeneous time resolved fluorescence (HTRF)-based”, “cell-based high throughput” for “cell-based”, “CHO” for “CHO-K1”; format: functional
[3] = target: T1, Orexin/Hypocretin receptor type 1 (Homo sapiens, UniProt O43613); experiment: Homogeneous Time Resolved Fluorescence (HTRF)-based cell-based high throughput dose response assay for antagonists of the orexin 1 receptor (OX1R; HCRTR1). [Related pubchem assays (depositor defined):AID434989, AID435008, AID463079, AID485270, AID492963, AID492964, AID492965, AID493232, AID504717, AID504718]; format: functional
[4] = target: T1, Orexin/Hypocretin receptor type 1; experiment: Fluorescence-based cell-based high throughput dose response assay for antagonists of the orexin 1 receptor (OX1R; HCRTR1). [Related pubchem assays (depositor defined):AID434989, AID435008, AID463079, AID485270, AID492963, AID492964, AID492965, AID493232, AID504717, AID504718]; format: functional
Orexin receptor type 2 [5] = target: T2, Orexin receptor type 2 (Homo sapiens, UniProt O43614); experiment: Counterscreen assay for antagonists of the orexin 1 receptor (OX1R; HCRTR1): Fluorescence-based cell-based dose response assay for antagonists of the orexin 2 receptor (OX2R; HCRTR2), run by assay provider.; format: functional
Orexin receptor type 2 [6] = target: T2, Orexin receptor type 2; experiment: Counterscreen assay for antagonists of the orexin 1 receptor (OX1R; HCRTR1): Homogeneous Time Resolved Fluorescence (HTRF)-based cell-based dose response assay for antagonists of the orexin 2 receptor (OX2R; HCRTR2), run by assay provider.; format: functional
[7] = target: T3, Voltage-gated N-type calcium channel alpha-1B subunit/Amyloid beta A4 precursor protein-binding family A member 1 (Homo sapiens, UniProt Q00975+Q02410); format: protein assay
[8] = target: T3, Voltage-gated N-type calcium channel alpha-1B subunit/Amyloid beta A4 precursor protein-binding family A member 1; format: protein assay; remark: listed apart in the source
[9] = target: Neurotensin receptor type 1 (Homo sapiens, UniProt P30989); format: functional;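 further: Image-based confirmatory dose-response assay measuring agonist activity at NTR1; NTR1-expressing U2OS osteosarcoma cells imaged for beta-arrestin GFP spot formation; agonist potency where compounds increase beta-arrestin recruitment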
[10] = target: T4, Carboxy-terminal domain RNA polymerase II polypeptide A small phosphatase 1 (Homo sapiens, UniProt Q9GZU7); experiment: inhibitors of CTDSP1, concentration-response testing, biochemical assay, absorbance-based, actives from ultra-high-throughput screening (AID 540297); format: functional
T4 sequence (Q9GZU7 whole entry): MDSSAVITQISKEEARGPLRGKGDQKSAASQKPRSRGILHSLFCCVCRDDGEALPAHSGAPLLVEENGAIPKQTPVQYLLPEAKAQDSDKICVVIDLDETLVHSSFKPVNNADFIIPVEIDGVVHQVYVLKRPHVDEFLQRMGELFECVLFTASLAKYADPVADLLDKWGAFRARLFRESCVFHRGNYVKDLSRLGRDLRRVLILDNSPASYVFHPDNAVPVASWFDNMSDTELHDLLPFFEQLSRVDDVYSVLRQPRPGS

Melanocortin receptor 4 = Melanocortin receptor 4 (Homo sapiens, UniProt P32245); experiment: MC4R antagonist potency on cAMP, dose response, cell-based, TR-FRET, biased antagonists (AID 602298); format: functional;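 further: antagonist potency against agonist-stimulated cAMP production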
[11] = nonselective inhibitors of cellular cAMP signaling, dose response, counter-screen for MC4R biased antagonist project, cell-based, TR-FRET cAMP detection (AID 602305); format: functional;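 further: U2OS cells stimulated with forskolin near its EC80 as the cAMP inducer; potency is for inhibition of forskolin-stimulated cAMP signaling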
[12] = target: T5, Histone-lysine N-methyltransferase NSD2 (Homo sapiens, UniProt O96028); format: biochemical
T5 sequence (O96028 whole entry): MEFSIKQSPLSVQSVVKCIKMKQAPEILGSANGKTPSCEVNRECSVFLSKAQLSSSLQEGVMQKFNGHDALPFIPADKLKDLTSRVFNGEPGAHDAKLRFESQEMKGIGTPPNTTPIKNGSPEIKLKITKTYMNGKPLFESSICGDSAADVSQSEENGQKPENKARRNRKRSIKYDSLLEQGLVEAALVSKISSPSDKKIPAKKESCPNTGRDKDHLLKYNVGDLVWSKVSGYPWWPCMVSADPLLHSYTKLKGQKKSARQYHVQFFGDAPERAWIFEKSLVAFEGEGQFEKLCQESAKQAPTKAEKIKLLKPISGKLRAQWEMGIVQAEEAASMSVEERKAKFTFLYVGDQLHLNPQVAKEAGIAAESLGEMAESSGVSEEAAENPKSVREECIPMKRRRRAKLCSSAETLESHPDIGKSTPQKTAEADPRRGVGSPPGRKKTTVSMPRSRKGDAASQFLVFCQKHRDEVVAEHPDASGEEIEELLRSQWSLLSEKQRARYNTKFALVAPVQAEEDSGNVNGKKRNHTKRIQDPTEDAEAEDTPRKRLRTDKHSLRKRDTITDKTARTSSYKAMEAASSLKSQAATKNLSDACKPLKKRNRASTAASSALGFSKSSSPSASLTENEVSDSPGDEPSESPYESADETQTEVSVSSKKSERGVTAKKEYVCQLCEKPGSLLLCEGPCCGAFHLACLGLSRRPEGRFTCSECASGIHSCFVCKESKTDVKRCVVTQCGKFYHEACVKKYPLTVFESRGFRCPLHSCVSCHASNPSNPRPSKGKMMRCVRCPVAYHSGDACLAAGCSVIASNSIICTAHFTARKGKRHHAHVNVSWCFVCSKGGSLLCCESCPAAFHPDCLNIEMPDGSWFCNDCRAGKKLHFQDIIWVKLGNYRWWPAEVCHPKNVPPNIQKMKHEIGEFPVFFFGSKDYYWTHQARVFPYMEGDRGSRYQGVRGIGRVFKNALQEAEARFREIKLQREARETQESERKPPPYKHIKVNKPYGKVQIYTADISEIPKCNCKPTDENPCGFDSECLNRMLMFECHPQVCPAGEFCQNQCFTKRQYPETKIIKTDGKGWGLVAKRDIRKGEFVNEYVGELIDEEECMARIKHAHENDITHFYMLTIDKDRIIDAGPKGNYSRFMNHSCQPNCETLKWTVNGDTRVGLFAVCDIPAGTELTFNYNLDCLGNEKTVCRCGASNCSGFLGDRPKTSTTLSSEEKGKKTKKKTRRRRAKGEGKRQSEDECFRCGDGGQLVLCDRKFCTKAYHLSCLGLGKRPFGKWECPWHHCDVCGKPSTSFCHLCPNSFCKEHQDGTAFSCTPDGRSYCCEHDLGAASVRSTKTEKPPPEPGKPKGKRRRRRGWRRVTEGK

[13] = Vero cell cytotoxicity, cytotoxicity control for M. tuberculosis inhibitor project, purified and synthesized samples, set 3 (AID 504684); format: functional
[14] = THP-1 cell cytotoxicity, cytotoxicity control, set 4 (AID 504911); format: functional; conditions: Mycobacterium tuberculosis
[15] = A Cell Based Secondary Assay to Explore Cytotoxicity in HepG2 Cells of Compounds that Modulate Mycobacterium tuberculosis in Media Containing Glycerol versus Media without Glycerol (2).; format: functional
[16] = THP-1 cell cytotoxicity, dose response, cytotoxicity control, set 3 (AID 504852); format: functional; conditions: Mycobacterium tuberculosis
[17] = Vero cell cytotoxicity, dose response, cytotoxicity control for M. tuberculosis growth inhibitor project, Vero cells, purified and synthesized compounds, set 4 (AID 504854); format: functional; conditions: Mycobacterium tuberculosis
[18] = target: Serine/threonine-protein kinase pim-1 (Homo sapiens, UniProt P11309); format: functional
[19] = target: Cell division cycle 7-related protein kinase (Homo sapiens, UniProt O00311); format: functional;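 further: value obtained from a kinome-wide kinase panel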
[20] = target: Homeodomain-interacting protein kinase 2 (Homo sapiens, UniProt Q9H2X6); format: functional;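 further: measured within a kinome-wide kinase profiling panel, HIPK2 being one panel member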
[21] = target: Interleukin-1 receptor-associated kinase 4 (Homo sapiens, UniProt Q9NWZ3); format: functional
[22] = target: Glycogen synthase kinase-3 beta (Homo sapiens, UniProt P49841); format: functional;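 further: value comes from a broad kinome profiling panel, with GSK3B as the panel member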
[23] = target: cAMP-dependent protein kinase catalytic subunit alpha (Homo sapiens, UniProt P17612); format: functional
[24] = target: Dual specificity protein kinase CLK4 (Homo sapiens, UniProt Q9HAZ1); format: functional
[25] = target: Mitogen-activated protein kinase kinase kinase kinase 4 (Homo sapiens, UniProt O95819); format: functional
[26] = target: T6, Neuropeptides B/W receptor type 1 (Homo sapiens, UniProt P48145); experiment: GPR7 antagonist potency, late-stage follow-up, cell-based, fluorescence, dose response, set 5 (AID 588566); format: functional
T6 sequence (P48145 whole entry): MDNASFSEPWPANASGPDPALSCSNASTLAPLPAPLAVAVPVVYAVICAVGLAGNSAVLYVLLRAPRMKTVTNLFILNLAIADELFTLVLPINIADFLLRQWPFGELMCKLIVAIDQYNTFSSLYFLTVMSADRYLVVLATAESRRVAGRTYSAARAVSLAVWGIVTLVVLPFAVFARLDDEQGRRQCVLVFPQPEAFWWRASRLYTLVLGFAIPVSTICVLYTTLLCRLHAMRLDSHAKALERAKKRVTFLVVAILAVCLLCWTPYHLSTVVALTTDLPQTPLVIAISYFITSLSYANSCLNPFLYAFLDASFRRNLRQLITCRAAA

[27] = target: Melanin-concentrating hormone receptor 1 (Homo sapiens, UniProt Q99705); experiment: Late-stage fluorescence-based counterscreen for antagonists of the G-protein coupled receptor 7 (GPR7): cell-based dose response assay to identify antagonists of the melanin-concentrating hormone receptor 1 (MCHR1) Set 5.; format: functional
[28] = SAR analysis of small molecule activators of Apaf-1 using a LZ-Caspase-9/Caspase-3 Fluorescent Selectivity assay - Set 2.; format: functional; conditions: read-out: EC50_Mean
[29] = target: T7, Apoptotic protease-activating factor 1 (Homo sapiens, UniProt O14727); experiment: SAR analysis of small molecule Activators of Apaf-1 in a Fluorescent assay - set 2.; format: functional; conditions: read-out: EC50_Mean
T7 sequence (O14727 whole entry): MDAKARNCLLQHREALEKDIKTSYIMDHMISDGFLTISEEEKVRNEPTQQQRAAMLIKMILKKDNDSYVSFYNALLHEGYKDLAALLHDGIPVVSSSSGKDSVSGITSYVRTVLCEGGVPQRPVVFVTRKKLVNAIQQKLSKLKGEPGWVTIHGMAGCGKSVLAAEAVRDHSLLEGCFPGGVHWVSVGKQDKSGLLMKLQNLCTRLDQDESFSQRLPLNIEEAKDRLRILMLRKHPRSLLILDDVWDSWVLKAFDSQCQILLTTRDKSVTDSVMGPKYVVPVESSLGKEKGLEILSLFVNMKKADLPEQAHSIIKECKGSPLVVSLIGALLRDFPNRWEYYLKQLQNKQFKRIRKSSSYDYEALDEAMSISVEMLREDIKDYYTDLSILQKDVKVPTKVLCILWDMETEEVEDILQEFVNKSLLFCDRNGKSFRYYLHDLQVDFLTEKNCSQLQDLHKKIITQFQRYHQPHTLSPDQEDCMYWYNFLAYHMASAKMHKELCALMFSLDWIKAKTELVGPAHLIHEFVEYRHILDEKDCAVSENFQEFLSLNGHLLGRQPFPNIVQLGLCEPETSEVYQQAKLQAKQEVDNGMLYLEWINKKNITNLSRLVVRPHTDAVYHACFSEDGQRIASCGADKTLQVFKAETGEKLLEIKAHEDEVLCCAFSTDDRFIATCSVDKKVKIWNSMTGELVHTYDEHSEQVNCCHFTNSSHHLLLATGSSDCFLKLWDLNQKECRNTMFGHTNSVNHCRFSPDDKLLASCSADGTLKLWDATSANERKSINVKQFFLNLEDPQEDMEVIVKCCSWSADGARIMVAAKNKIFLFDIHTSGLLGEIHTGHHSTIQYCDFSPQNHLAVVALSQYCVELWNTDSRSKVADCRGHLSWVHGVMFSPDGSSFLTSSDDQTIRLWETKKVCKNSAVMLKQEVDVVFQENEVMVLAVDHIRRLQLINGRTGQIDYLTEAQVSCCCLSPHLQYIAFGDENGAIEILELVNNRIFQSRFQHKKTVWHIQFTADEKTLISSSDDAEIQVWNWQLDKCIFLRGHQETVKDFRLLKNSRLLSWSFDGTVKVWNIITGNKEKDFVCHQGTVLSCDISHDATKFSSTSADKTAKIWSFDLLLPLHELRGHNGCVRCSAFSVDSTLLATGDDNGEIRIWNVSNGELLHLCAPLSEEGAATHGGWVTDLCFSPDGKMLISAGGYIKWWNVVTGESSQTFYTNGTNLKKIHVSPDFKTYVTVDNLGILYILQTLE

T1 sequence (O43613 whole entry): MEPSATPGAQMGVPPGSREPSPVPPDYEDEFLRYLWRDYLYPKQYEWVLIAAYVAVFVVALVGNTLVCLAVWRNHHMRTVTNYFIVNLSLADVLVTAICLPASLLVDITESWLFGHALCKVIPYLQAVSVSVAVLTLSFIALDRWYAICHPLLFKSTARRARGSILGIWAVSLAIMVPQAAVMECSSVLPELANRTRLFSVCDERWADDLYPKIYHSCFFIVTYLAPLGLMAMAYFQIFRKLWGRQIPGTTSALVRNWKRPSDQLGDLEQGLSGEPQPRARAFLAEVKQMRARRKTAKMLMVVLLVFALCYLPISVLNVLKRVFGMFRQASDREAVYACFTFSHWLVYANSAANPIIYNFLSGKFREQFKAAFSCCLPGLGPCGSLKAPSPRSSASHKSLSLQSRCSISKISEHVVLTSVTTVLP
T3 sequence (Q00975 whole entry): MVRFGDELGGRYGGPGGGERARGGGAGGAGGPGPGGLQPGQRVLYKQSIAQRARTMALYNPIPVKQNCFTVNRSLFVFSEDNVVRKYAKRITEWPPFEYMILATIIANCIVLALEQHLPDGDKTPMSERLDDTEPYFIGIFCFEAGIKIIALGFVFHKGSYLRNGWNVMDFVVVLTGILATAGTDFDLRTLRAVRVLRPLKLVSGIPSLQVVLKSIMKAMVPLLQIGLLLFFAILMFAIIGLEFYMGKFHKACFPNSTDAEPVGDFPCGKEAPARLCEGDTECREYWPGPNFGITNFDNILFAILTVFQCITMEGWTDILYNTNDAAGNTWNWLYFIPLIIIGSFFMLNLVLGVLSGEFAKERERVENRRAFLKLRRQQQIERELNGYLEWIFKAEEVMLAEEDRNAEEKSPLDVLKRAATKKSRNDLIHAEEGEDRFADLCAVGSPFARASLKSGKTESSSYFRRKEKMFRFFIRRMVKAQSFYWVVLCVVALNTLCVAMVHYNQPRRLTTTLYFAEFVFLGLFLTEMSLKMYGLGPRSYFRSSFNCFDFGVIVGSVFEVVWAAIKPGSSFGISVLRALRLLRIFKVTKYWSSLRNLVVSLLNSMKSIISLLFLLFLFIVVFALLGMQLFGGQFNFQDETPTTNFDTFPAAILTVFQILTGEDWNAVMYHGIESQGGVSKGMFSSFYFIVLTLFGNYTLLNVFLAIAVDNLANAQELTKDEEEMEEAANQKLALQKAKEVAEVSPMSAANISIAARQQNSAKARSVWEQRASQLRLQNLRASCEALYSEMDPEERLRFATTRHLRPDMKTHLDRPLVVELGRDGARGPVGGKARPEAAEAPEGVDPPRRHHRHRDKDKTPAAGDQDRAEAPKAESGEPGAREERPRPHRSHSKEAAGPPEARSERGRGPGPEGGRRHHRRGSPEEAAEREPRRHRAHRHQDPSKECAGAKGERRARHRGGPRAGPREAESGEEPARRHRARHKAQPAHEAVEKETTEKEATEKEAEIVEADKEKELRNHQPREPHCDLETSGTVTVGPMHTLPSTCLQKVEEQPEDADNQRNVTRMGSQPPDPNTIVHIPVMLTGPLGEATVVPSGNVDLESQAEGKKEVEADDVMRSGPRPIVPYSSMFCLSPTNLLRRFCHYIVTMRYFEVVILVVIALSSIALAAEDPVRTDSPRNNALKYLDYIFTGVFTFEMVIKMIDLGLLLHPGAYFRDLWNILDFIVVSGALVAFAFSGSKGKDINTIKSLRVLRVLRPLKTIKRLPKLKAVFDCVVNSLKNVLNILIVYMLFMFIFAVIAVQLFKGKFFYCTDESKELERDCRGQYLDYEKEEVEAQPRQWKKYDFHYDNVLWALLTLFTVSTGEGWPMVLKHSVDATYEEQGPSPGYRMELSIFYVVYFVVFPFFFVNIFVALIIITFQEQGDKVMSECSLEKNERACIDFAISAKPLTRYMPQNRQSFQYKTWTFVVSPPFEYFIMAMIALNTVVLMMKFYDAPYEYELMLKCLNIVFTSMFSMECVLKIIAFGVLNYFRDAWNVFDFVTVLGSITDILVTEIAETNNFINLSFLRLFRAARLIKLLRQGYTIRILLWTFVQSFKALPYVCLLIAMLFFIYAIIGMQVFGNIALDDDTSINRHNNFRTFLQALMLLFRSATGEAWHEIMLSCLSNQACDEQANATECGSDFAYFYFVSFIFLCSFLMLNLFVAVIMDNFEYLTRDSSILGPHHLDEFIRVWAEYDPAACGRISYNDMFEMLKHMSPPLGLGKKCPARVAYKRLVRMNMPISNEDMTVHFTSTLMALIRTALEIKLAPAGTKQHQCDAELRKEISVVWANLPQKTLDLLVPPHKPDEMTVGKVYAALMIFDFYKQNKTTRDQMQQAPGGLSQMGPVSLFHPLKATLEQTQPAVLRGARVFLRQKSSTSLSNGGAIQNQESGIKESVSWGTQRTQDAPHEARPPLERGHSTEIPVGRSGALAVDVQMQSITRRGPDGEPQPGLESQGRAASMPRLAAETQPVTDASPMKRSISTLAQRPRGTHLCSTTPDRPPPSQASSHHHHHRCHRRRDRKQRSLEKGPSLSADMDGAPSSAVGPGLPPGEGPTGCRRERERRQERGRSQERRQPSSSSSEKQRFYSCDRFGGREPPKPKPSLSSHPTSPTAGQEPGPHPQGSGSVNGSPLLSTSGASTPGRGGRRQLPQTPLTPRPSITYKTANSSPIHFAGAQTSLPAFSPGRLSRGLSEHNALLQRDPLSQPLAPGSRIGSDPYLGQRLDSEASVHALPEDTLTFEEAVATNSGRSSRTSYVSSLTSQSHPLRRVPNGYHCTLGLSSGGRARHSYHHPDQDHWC
T3 sequence (Q02410 whole entry): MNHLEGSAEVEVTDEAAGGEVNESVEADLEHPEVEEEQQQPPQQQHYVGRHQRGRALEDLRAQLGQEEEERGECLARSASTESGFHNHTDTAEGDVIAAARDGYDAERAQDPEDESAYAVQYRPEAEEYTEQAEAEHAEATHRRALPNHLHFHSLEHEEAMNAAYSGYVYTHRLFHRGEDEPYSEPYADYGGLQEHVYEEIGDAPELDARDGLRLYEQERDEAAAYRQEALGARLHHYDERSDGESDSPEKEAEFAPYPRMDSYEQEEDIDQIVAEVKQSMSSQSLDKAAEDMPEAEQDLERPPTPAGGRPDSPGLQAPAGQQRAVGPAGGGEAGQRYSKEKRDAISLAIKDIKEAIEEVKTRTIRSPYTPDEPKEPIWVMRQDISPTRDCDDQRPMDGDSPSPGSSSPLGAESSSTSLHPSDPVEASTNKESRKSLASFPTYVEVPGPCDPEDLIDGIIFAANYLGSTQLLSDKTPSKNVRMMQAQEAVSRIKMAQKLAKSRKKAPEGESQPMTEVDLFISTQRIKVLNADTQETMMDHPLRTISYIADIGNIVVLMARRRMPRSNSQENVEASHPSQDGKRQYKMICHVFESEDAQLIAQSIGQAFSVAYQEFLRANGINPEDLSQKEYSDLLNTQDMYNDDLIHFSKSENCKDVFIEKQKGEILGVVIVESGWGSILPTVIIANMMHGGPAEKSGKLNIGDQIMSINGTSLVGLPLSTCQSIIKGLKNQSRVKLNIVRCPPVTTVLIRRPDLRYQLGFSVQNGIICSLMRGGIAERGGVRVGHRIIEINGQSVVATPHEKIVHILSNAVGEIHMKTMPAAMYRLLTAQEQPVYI
T2 sequence (O43614 whole entry): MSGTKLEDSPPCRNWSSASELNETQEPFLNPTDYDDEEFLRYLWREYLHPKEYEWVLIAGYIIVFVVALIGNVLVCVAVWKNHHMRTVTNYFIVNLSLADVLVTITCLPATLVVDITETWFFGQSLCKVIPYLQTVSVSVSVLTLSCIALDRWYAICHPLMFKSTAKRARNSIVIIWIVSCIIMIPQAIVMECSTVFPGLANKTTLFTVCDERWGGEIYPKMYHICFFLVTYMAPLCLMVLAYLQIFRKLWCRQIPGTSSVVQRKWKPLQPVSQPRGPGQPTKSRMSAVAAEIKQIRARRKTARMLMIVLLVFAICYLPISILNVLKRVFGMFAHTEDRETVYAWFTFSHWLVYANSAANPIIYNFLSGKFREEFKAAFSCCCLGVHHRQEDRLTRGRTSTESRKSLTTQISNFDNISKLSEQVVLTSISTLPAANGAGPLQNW
Sequence of Protein disulfide-isomerase (P07237 whole entry): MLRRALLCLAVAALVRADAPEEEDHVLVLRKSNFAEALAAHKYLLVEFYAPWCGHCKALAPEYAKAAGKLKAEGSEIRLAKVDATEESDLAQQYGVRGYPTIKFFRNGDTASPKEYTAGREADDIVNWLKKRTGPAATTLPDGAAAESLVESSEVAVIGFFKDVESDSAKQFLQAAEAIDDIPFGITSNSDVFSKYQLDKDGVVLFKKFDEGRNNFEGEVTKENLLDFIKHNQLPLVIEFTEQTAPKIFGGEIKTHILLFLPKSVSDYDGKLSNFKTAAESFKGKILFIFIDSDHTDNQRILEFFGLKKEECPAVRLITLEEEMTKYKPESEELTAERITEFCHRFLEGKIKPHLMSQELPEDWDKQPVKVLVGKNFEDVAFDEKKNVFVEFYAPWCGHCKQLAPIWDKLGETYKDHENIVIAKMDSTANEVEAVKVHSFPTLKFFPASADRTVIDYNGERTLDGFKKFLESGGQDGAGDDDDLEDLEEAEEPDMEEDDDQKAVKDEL
Sequence of Dual specificity protein kinase CLK4 (Q9HAZ1 whole entry): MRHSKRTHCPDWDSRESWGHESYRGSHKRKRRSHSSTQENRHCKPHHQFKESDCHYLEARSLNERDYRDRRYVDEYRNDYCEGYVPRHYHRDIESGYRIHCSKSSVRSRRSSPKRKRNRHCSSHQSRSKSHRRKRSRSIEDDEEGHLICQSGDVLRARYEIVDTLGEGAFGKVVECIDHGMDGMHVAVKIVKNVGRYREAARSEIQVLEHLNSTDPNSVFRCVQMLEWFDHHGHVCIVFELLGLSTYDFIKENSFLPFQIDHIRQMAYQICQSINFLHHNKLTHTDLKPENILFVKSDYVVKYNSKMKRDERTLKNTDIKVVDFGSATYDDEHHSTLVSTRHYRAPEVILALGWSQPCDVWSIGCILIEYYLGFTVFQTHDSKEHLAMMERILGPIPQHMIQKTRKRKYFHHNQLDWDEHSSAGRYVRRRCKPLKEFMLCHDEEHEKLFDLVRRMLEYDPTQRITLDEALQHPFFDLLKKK

## C/C=C(\C)C(=O)NCCN1C2=NC[C@H](Cc3ccc(O)cc3)N2C[C@H]1Cc1ccc(O)cc1
[1]
  AC50: 15.4 µM (active)

## Cc1ccc(/C=C2/Sc3ccccc3N(CC(=O)NCC3CCCO3)C2=O)cc1 (stereo unspecified)
CHO-K1
  IC50: > 66.2 µM (inactive)
[2]
  IC50: > 49.8 µM (inactive)
[3]
  IC50: 1.77 µM (active)
[4]
  IC50: 5.59 µM (active)
Orexin receptor type 2 [5]
  IC50: 29.8 µM (inactive)
Orexin receptor type 2 [6]
  IC50: > 50 µM (inactive)

## O=C1NC(=O)C(=Cc2ccc(SC3CCCCC3)o2)C(=O)N1
[7]
  IC50: 14.5 µM (active)
[8]
  IC50: > 50 µM (inactive)
[9]
  EC50: 12.7 µM (active)
[10]
  IC50: 5.67 µM (active)
Melanocortin receptor 4
  IC50: > 21.5 µM (inactive)
[11]
  IC50: > 64.6 µM (inactive)
[12]
  AC50: > 20 µM (inactive)

## CC1CCN(C(=O)C2CCN(c3nnc(-n4cccc4)s3)CC2)CC1
[13]
  CC50: > 100 µM (active)
[14]
  CC50: > 100 µM (active)
[15]
  CC50: > 50 µM (active)
[16]
  CC50: > 100 µM (active)
[17]
  CC50: > 100 µM (active)

## O=C1Nc2ccccc2Nc2cc(-c3ccncc3F)ccc21
[18]
  Ki: > 10 µM (inactive)
[19]
  Ki: 0.00398 µM (active)
[20]
  Ki: 0.631 µM (active)
[21]
  Ki: 1.58 µM (active)
[22]
  Ki: 0.158 µM (active)
[23]
  Ki: 1 µM (active)
[24]
  Ki: 0.0251 µM (active)
[25]
  Ki: 0.794 µM (active)

## COc1c(F)cc(Oc2c(Cl)cnn(Cc3cccc4ccccc34)c2=O)cc1Cl
[26]
  IC50: 5.05 µM (active)
[27]
  IC50: 11.2 µM (inactive)

## CC(CNC(C)c1ccccc1)C(=O)O (stereo unspecified)
[28]
  EC50: > 100 µM (inactive)
[29]
  EC50: 80.6 µM (active)

Source: ChEMBL document CHEMBL1201862, “PubChem BioAssay data set” (2004)
